The target in this test is T1, Mcl-1/Bim interaction, recombinant human Mcl-1 (171-327) (Homo sapiens, UniProt Q07820).
T1 construct: made in house
Description: Cell free Mcl-1: Bim Affinity Assay (Mcl-1 HTRF). The test is classed as binding. How it is done: Cell free Mcl-1: Bim Affinity Assay (Mcl-1 HTRF)
The inhibition of the Mcl-1/Bim interaction was measured using a time-resolved fluorescence resonance energy transfer (TR-FRET) assay. […] A biotinylated peptide derived from human Bim (residues 51-76) was purchased from CPC Scientific (San Jose, CA). The TR-FRET assay was conducted in a 384-well white OptiPlatem (PerkinElmer, Waltham, MA) in a total volume of 40 μL. […] The reaction plates were further incubated overnight and then were read on an Envision® multimode reader (PerkinElmer). […] The IC50 values of test compounds were determined from duplicate data by analyzing competition curves using a four-parameter sigmoidal model in GraphPad Prism (GraphPad Software, San Diego, CA) or in Genedata Screener® (Genedata, Basel, Switzerland).
In general terms: Time-resolved FRET reads energy transfer from a long-lived donor to a nearby acceptor.

[1] abbreviates: TR-FRET, 0.1 nM Mcl-1 (171-327), 0.05 nM biotin-Bim (51-76).
The mark [2] stands for this setting: cell free Mcl-1:Bim TR-FRET, recombinant human Mcl-1 (171-327).

T1 sequence (Q07820 171-327): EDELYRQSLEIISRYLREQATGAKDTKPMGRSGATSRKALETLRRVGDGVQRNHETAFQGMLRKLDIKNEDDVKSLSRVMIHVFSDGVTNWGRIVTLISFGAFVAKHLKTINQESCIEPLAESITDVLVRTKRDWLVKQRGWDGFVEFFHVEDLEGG

In general, IC50 refers to the concentration at which inhibition is half-maximal. As to `CCOC[C@@H]1CC/C=C/[C@H](O)[C@@H]2CC[C@H]2CN2C[C@@]3(CCCc4cc(Cl)ccc43)COc3ccc(cc32)C(=O)NS1(=O)=O` (single isomer, unassigned) [Example 439], the IC50 under setting [1] was determined as 0.321 nM.

For `CCOC[C@H]1CC/C=C/[C@H](O)[C@@H]2CC[C@H]2CN2C[C@@]3(CCCc4cc(Cl)ccc43)COc3ccc(cc32)C(=O)NS1(=O)=O` (single isomer, unassigned) [Example 440], the IC50 under setting [1] was determined as 2.44 nM.

For `C=C1CC/C=C/[C@H](O)[C@@H]2CC[C@H]2CN2C[C@@]3(CCCc4cc(Cl)ccc43)COc3ccc(cc32)C(=O)NS1(=O)=O` (single isomer, unassigned) [Example 441], under setting [1], the IC50 stood at 0.632 nM.

In the case of `COCC[C@@H]1CC/C=C/[C@H](O)[C@@H]2CC[C@H]2CN2C[C@@]3(CCCc4cc(Cl)ccc43)COc3ccc(cc32)C(=O)NS1(=O)=O` (single isomer, unassigned) [Example 442], under setting [1], the IC50 worked out at 0.292 nM.

On to `COCC[C@H]1CC/C=C/[C@H](O)[C@@H]2CC[C@H]2CN2C[C@@]3(CCCc4cc(Cl)ccc43)COc3ccc(cc32)C(=O)NS1(=O)=O` (single isomer, unassigned) [Example 443], for which, under setting [1], the IC50 came to 1.51 nM.

As to `O=C1NS(=O)(=O)[C@H](CO)CC/C=C/[C@H](O)[C@@H]2CC[C@H]2CN2C[C@@]3(CCCc4cc(Cl)ccc43)COc3ccc1cc32` (single isomer, unassigned) [Example 445], the IC50 under setting [1] was 0.461 nM.

On to `COCCOCC1CCC=CC(O)C2CCC2CN2CC3(CCCc4cc(Cl)ccc43)COc3ccc(cc32)C(=O)NS1(=O)=O` (single isomer, unassigned) [Example 447], for which the IC50 under setting [1] stood at 0.378 nM.

As for `COCCOC[C@@H]1CC/C=C/[C@H](O)[C@@H]2CC[C@H]2CN2C[C@@]3(CCCc4cc(Cl)ccc43)COc3ccc(cc32)C(=O)NS1(=O)=O` (single isomer, unassigned) [Example 448], the IC50 under setting [1] came out at 0.951 nM.

On to `O=C1NS(=O)(=O)C(CO)CCC=CCC2CCC2CN2CC3(CCCc4cc(Cl)ccc43)COc3ccc1cc32` (single isomer, unassigned) [Example 450], for which, under setting [1], the IC50 is 6.76 nM.

Turning to `O=C1NS(=O)(=O)[C@@H](CO)CC/C=C\C[C@@H]2CC[C@H]2CN2C[C@@]3(CCCc4cc(Cl)ccc43)COc3ccc1cc32` (single isomer, unassigned) [Example 451], under setting [1], the IC50 came out at 11.5 nM.

As for `O=C1NS(=O)(=O)CCC/C=C/C[C@@H]2CC[C@H]2CN2C[C@@]3(CCCc4cc(Cl)ccc43)COc3ccc1cc32` (single isomer, unassigned) [Example 495], the IC50 under setting [2] is 2.48 nM.

Take `O=C1NS(=O)(=O)C/C=C\CCC[C@@H]2CC[C@H]2CN2C[C@@]3(CCCc4cc(Cl)ccc43)COc3ccc1cc32` (single isomer, unassigned) [Example 497]: under setting [2], the IC50 was found to be 4 nM.

With `O=C1NS(=O)(=O)C/C=C/CCC[C@@H]2CC[C@H]2CN2C[C@@]3(CCCc4cc(Cl)ccc43)COc3ccc1cc32` (single isomer, unassigned) [Example 498], the IC50 under setting [2] worked out at 9.03 nM.

Regarding `O=C1NS(=O)(=O)C/C=C/[C@H](O)CC[C@@H]2CC[C@H]2CN2C[C@@]3(CCCc4cc(Cl)ccc43)COc3ccc1cc32` (single isomer, unassigned) [Example 500], the IC50 under setting [2] stood at 7.08 nM.

For the molecule `O=C1NS(=O)(=O)C/C=C/[C@@H](O)CC[C@@H]2CC[C@H]2CN2C[C@@]3(CCCc4cc(Cl)ccc43)COc3ccc1cc32` (single isomer, unassigned) [Example 501], the half-maximal inhibitory concentration (IC50) under setting [2] worked out at 1.49 nM.

Consider `O=C1NS(=O)(=O)CCC[C@H](O)CC[C@@H]2CC[C@H]2CN2C[C@@]3(CCCc4cc(Cl)ccc43)COc3ccc1cc32` (single isomer, unassigned) [Example 502, (1S,3′R,6′S,9′R)-6-chloro-9′-hydroxy-3,4-dihydro-2H,15′H-spiro[naphthalene-1,22′-[20]oxa[13]thia[1,14]diazatetracyclo[14.7.2.0^3,6.0^19,24]pentacosa [16,18,24]trien]-15′-one 13′,13′-dioxide or (1S,3′R,6′S,9′S)-6-chloro-9′-hydroxy-3,4-dihydro-2H,15′H-spiro[naphthalene-1,22′-[20]oxa[13]thia[1,14]diazatetracyclo[14.7.2.0^3,6.0^19,24]pentacosa [16,18,24]trien]-15′-one 13′,13′-dioxide], for which the IC50 under setting [2] was 2.31 nM.

In the case of `O=C1NS(=O)(=O)CCC[C@@H](O)CC[C@@H]2CC[C@H]2CN2C[C@@]3(CCCc4cc(Cl)ccc43)COc3ccc1cc32` (single isomer, unassigned) [Example 503, (1S,3′R,6′S,9′S)-6-chloro-9′-hydroxy-3,4-dihydro-2H,15′H-spiro[naphthalene-1,22′-[20]oxa[13]thia[1,14]diazatetracyclo[14.7.2.0^3,6.0^19,24]pentacosa [16,18,24]trien]-15′-one 13′,13′-dioxide or (1S,3′R,6′S,9′R)-6-chloro-9′-hydroxy-3,4-dihydro-2H,15′H-spiro[naphthalene-1,22′-[20]oxa[13]thia[1,14]diazatetracyclo[14.7.2.0^3,6.0^19,24]pentacosa [16,18,24]trien]-15′-one 13′,13′-dioxide], the half-inhibitory concentration (IC50) under setting [2] came out at 3.96 nM.

`C[C@@H]1[C@@H](O)C/C=C/C[C@@H]2CC[C@H]2CN2C[C@@]3(CCCc4cc(Cl)ccc43)COc3ccc(cc32)C(=O)NS1(=O)=O` (single isomer, unassigned) [Example 504]: under setting [2], the IC50 came to 2.55 nM.

Take `C[C@@H]1[C@H](O)C/C=C/C[C@@H]2CC[C@H]2CN2C[C@@]3(CCCc4cc(Cl)ccc43)COc3ccc(cc32)C(=O)NS1(=O)=O` (single isomer, unassigned) [Example 506]: under setting [2], the IC50 amounted to 15.5 nM.

As to `CC1C(O)CC=CCC2CCC2CN2CC3(CCCc4cc(Cl)ccc43)COc3ccc(cc32)C(=O)NS1(=O)=O` (single isomer, unassigned) [Example 507], under setting [2], the IC50 was 18.3 nM.

With `C[C@@H](O)C[C@H]1CC/C=C/[C@H](O)[C@@H]2CC[C@H]2CN2C[C@@]3(CCCc4cc(Cl)ccc43)COc3ccc(cc32)C(=O)NS1(=O)=O` (single isomer, unassigned) [Example 539], under setting [2], the IC50 was 2.78 nM.

For the molecule `C[C@H](O)C[C@H]1CC/C=C/[C@H](O)[C@@H]2CC[C@H]2CN2C[C@@]3(CCCc4cc(Cl)ccc43)COc3ccc(cc32)C(=O)NS1(=O)=O` (single isomer, unassigned) [Example 551], under setting [2], the IC50 is 3.43 nM.

For the molecule `O=C1NS(=O)(=O)C[C@@H](O)/C=C/C[C@H](O)[C@@H]2CC[C@H]2CN2C[C@@]3(CCCc4cc(Cl)ccc43)COc3ccc1cc32` (single isomer, unassigned) [Example 597], the IC50 under setting [2] came out at 1.46 nM.

In the case of `O=C1NS(=O)(=O)C[C@H](O)/C=C/C[C@H](O)[C@@H]2CC[C@H]2CN2C[C@@]3(CCCc4cc(Cl)ccc43)COc3ccc1cc32` (single isomer, unassigned) [Example 598], the IC50 under setting [2] came to 1.49 nM.

Regarding `CC#CC1=CC(O)CCC(C)S(=O)(=O)NC(=O)c2ccc3c(c2)N(CC2CCC12)CC1(CCCc2cc(Cl)ccc21)CO3` (single isomer, unassigned) [Example 605], under setting [2], the IC50 turned out to be 0.943 nM.

`CC#CC1=CC(O)CCC(C)S(=O)(=O)NC(=O)c2ccc3c(c2)N(CC2CCC12)CC1(CCCc2cc(Cl)ccc21)CO3` (single isomer, unassigned) [Example 606]: under setting [2], the IC50 came out at 13.5 nM.

As to `C[C@@H]1CCC2=NO[C@H](C2)[C@@H]2CC[C@H]2CN2C[C@@]3(CCCc4cc(Cl)ccc43)COc3ccc(cc32)C(=O)NS1(=O)=O` (single isomer, unassigned) [Example 609], under setting [2], the IC50 turned out to be 3.84 nM.

Regarding `O=C1NS(=O)(=O)[C@H](CCOc2ccc(Br)cc2)CC/C=C/[C@H](O)[C@@H]2CC[C@H]2CN2C[C@@]3(CCCc4cc(Cl)ccc43)COc3ccc1cc32` (single isomer, unassigned) [Example 625], the 50% inhibitory concentration (IC50) under setting [2] was 38.3 nM.

`O=C(C[C@@H]1CC/C=C/[C@H](O)[C@@H]2CC[C@H]2CN2C[C@@]3(CCCc4cc(Cl)ccc43)COc3ccc(cc32)C(=O)NS1(=O)=O)Nc1cccc(Cl)c1` (single isomer, unassigned) [Example 627]: the IC50 under setting [2] was determined as 10.1 nM.

As to `COc1cccc(NC(=O)C[C@@H]2CC/C=C/[C@H](O)[C@@H]3CC[C@H]3CN3C[C@@]4(CCCc5cc(Cl)ccc54)COc4ccc(cc43)C(=O)NS2(=O)=O)c1` (single isomer, unassigned) [Example 628], under setting [2], the IC50 came out at 3.9 nM.

Take `COc1ccc(C)c(NC(=O)C[C@@H]2CC/C=C/[C@H](O)[C@@H]3CC[C@H]3CN3C[C@@]4(CCCc5cc(Cl)ccc54)COc4ccc(cc43)C(=O)NS2(=O)=O)c1` (single isomer, unassigned) [Example 629]: the IC50 under setting [2] was determined as 2.3 nM.

As to `O=C(C[C@@H]1CC/C=C/[C@H](O)[C@@H]2CC[C@H]2CN2C[C@@]3(CCCc4cc(Cl)ccc43)COc3ccc(cc32)C(=O)NS1(=O)=O)Nc1ccccc1` (single isomer, unassigned) [Example 630], the IC50 under setting [2] stood at 1.61 nM.

Consider `O=C1C[C@H](O)[C@@H]2CC[C@H]2CN2C[C@@]3(CCCc4cc(Cl)ccc43)COc3ccc(cc32)C(=O)NS(=O)(=O)CCN1` (single isomer, unassigned) [Example 680], for which the IC50 under setting [2] is 26.8 nM.

For the molecule `O=C1C[C@H](O)[C@@H]2CC[C@H]2CN2C[C@@]3(CCCc4cc(Cl)ccc43)COc3ccc(cc32)C(=O)NS(=O)(=O)CCN1` (single isomer, unassigned) [Example 681], the IC50 under setting [2] stood at 29 nM.

In the case of `COC1C=CCCC(C(C)(C)O)S(=O)(=O)NC(=O)c2ccc3c(c2)N(CC2CCC21)CC1(CCCc2cc(Cl)ccc21)CO3` (single isomer, unassigned) [Example 682], under setting [2], the IC50 was 1.78 nM.

(Values after patent publication US12091425B2 (AMGEN INC., priority 2016, dated 2024).)
